Results on 1 substance are retold here after patent US20140065223A1, “PERFLUORINATED COMPOUNDS FOR THE NON-VIRAL TRANSFER OF NUCLEIC ACIDS” (priority 2011, published 2014).

The subject of this assay is Cells of line HEK 293. Nature of the assay: Detection of absorption into the cell: transfection of HEK 293 cells, microscopy / confocal microscopy of rhodamine coloration. Format: cell-based. Here is the method:
To follow the path of the perfluorinated nucleic acids into the cell, the following construct with rhodamine linking was used: The compound was first dissolved in tetrahydrofuran (THF), and this solution was subsequently titrated in isopropanol. […] Cells of line HEK 293 were used as cell culture Transfection was performed one day after cell enlargement. As a control, a transfection was performed with pure rhodamine particles of equivalent rhodamine concentration to test the perfluorinated nucleic acids. […] One explanation of this is possible that the rhodamine is bound to the PFC particle in the perfluorinated nucleic acids and sinks to the bottom as a small particle, whereas the dye is completely dissolved in the medium with pure rhodamine. […] The endosomes and lysosomes filled with perfluorinated nucleic acids were detected throughout the cell cytoplasm.

rhodamine [pure rhodamine]: the “coloration of the cells” value runs as follows: (20 minutes after transfection) “no defined coloration could be seen”; (24 hours after transfection) “substantially weaker and diffuse in comparison on the cell surface instead of in the cytoplasm and granular”.
